Legend:
[1] = tested on: HDAC (HeLa nuclear extract); assay: HDAC fluorimetric assay (inhibition of HDAC enzymatic activity); type: biochemical; conditions: HDAC fluorimetric assay kit
Method: (c) An In Vitro Assay which Determines the Ability of a Test Compound to Inhibit HDAC Enzymatic Activity.
HDAC inhibitors were screened using an HDAC fluorimetric assay kit (AK-500, Biomol, Plymouth Meeting, Pa.). Test compounds were dissolved in dimethylsulphoxide (DMSO) to give a 20 mM working stock concentration. Fluorescence was measured on a WALLAC Victor 2 plate reader and reported as relative fluorescence units (RFU). Data were plotted using GraphPad Prism (v4.0a) and IC50's calculated using a sigmoidal dose response curve fitting algorithm. Each assay was setup as follows: Defrosted all kit components and kept on ice until use. Diluted HeLa nuclear extract 1:29 in Assay Buffer (50 mM Tris/Cl, pH 8.0, 137 mM NaCl, 2.7 mM KCl, 1 mM MgCl2). Prepared dilutions of Trichostatin A (TSA, positive control) and tested compounds in assay buffer (5× of final concentration). Diluted Fluor de Lys™ Substrate in assay buffer to 100 uM (50 fold=2× final). Diluted Fluor de Lys™ developer concentrate 20-fold (e.g. 50 μl plus 950 μl Assay Buffer) in cold assay buffer. Second, diluted the 0.2 mM Trichostatin A 100-fold in the 1× Developer (e.g. 10 μl in 1 ml; final Trichostatin A concentration in the 1× Developer=2 μM; final concentration after addition to HDAC/Substrate reaction=1 μM). Added Assay buffer, diluted trichostatin A or test inhibitor to appropriate wells of the microtiter plate. Added diluted HeLa extract or other HDAC sample to all wells except for negative controls. Allowed diluted Fluor de Lys™ Substrate and the samples in the microtiter plate to equilibrate to assay temperature (e.g. 25 or 37° C. Initiated HDAC reactions by adding diluted substrate (25 μl) to each well and mixing thoroughly. Allowed HDAC reactions to proceed for 1 hour and then stopped them by addition of Fluor de Lys™ Developer (50 μl). Incubated plate at room temperature (25° C.) for 10-15 min. Read samples in a microtiter-plate reading fluorimeter capable of excitation at a wavelength in the range 350-380 nm and detection of emitted light in the range 440-460 nm.

[2] = biological target: T1, HSP90 (Homo sapiens, UniProt P07900); assay: HSP90 assay (chaperone luciferase refolding / competition binding fluorescence polarization); conditions: Table B does not say which of the two described
T1 construct: purchased Assay Design SPP-776F
Method: (a) An In Vitro Assay which Determines the Ability of a Test Compound to Inhibit Hsp90 Chaperone Activity.
The Hsp90 chaperone assay was performed to measure the ability of HSP90 protein to refold the heat-denatured luciferase protein. HSP90 was first incubated with different concentrations of test compounds in denaturation buffer (25 mM Tris, pH7.5, 8 mM MgSO4, 0.01% bovine gamma globulin and 10% glycerol) at room temperature for 30 min. Luciferase protein was added to denaturation mix and incubated at 50° C. for 8 min. The final concentration of HSP90 and luciferase in denaturation mixture were 0.375 μM and 0.125 μM respectively. A 5 μl sample of the denatured mix was diluted into 25 μl of renaturation buffer (25 mM Tris, pH7.5, 8 mM MgSO4, 0.01% bovine gamma globulin and 10% glycerol, 0.5 mM ATP, 2 mM DTT, 5 mM KCl, 0.3 μM HSP70 and 0.15 μM HSP40). The renaturation reaction was incubated at room temperature for 150 min, followed by dilution of 10 μl of the renatured sample into 90 μl of luciferin reagent (Luclite, PerkinElmer Life Science). The mixture was incubated at dark for 5 min before reading the luminescence signal on a TopCount plate reader (PerkinElmer Life Science).
(b) HSP90 Competition Binding (Fluorescence Polarization) Assay.
A fluorescein isothiocyanate (FITC) labeled GM was purchase from InvivoGen (ant-fgl-1). The interaction between HSP90 and labeled GM forms the basis for the fluorescence polarization assay. A free and fast-tumbling FITC labeled GM emits random light with respect to the plane of polarization plane of excited light, resulting in a lower polarization degree (mP) value. When GM is bound to HSP90, the complex tumble slower and the emitted light is polarized, resulting in a higher mP value. This competition binding assay was performed in 96-well plate and with each assay contained 10 and 50 nM of labeled GM and purified HSP90 protein (Assay Design, SPP-776F) respectively. The assay buffer contained 20 mM HEPES (pH 7.3), 50 mM KCl, 1 mM DTT, 50 mM MgCl2, 20 mM Na2MoO4, 0.01% NP40 with 0.1 mg/ml bovine gamma-globulin. Compounds are diluted in DMSO and added to the final assay before labeled GM with concentration range from 20 uM to 2 nM. mP value was determined by BioTek Synergy II with background subtraction after 24 hours of incubation at 4° C.

Compound	melting point	IC50 [1]	IC50 [2]
CC(C)c1cc(-c2onc(C(=O)NCCCCCC(=O)NO)c2-c2ccc(CN3CCOCC3)cc2)c(O)cc1O [Compound 27, 5-(2,4-Dihydroxy-5-isopropylphenyl)-N-(6-(hydroxyamino)-6-oxohexyl)-4-(4-(morpholinomethyl)phenyl)isoxazole-3-carboxamide]	164 to 166 °C	100 to 1000 nM	≤ 100 nM
CC(C)c1cc(-c2onc(C(=O)NCCCCCCCC(=O)NO)c2-c2ccc(CN3CCOCC3)cc2)c(O)cc1O [Compound 29, 5-(2,4-Dihydroxy-5-isopropylphenyl)-N-(8-(hydroxyamino)-8-oxooctyl)-4-(4-(morpholinomethyl)phenyl)isoxazole-3-carboxamide]	117 to 119 °C	100 to 1000 nM	≤ 100 nM
CCNC(=O)c1noc(-c2cc(C(C)C)c(O)cc2O)c1-c1ccc(CNCCCCCC(=O)NO)cc1 [Compound 21, 5-(2,4-Dihydroxy-5-isopropylphenyl)-N-ethyl-4-(4-((6-(hydroxyamino)-6-oxohexylamino)methyl)phenyl)isoxazole-3-carboxamide]	134 to 135 °C	1000 to 10000 nM	≤ 100 nM

Source: patent US20090076006A1, “HSP90 INHIBITORS CONTAINING A ZINC BINDING MOIETY” (priority 2007, published 2009)
